Data reported in PMC10835732, “Pharmacokinetics of Hydroxytyrosol and Its Sulfate and Glucuronide Metabolites after the Oral Administration of Table Olives to Sprague-Dawley Rats” (Journal of Agricultural and Food Chemistry, 2024).
Values joined by “and” are separate entries in the source; they are usually repeats but may differ in a detail not shown here. Equal values may be shown once. Read-outs that look alike come from different tables or passages of the source. Marks after values point to notes of the source that are not given here.

Key:
[1] = Plasma pharmacokinetics (noncompartmental analysis) after single oral administration of Arbequina table olives; format: in vivo, Sprague-Dawley rats; conditions: for Cmax/D: D = dose of hydroxytyrosol in nmol; for AUC0–∞/D / AUCt/D: D in nmol; for AUCt: time zero up to 8 h; for Tmax: median (min, max); for k el: read-out: λz (apparent elimination rate constant) (converted); for Cmax: read-out: Peak plasma concentration (Cmax), text value with ± spread
Experimental: The experiments were performed using Sprague–Dawley rats (n = 13) randomly divided into two groups, the 30 olives group (n = 6) that received the dose of 3.85 g/kg and the 60 olives group (n = 7), which was given the dose of 7.70 g/kg. The freshly prepared homogeneous suspensions were given to overnight fasted rats by oral gavage (18-gauge × 76 mm, ref FFSS-186-76, Instech Laboratories, Inc., Plymouth Meeting, PA). The volume of administration was 10 mL/kg. After the single administration of Arbequina table olives, blood was obtained at 30, 60, 90, 120, 240, 360, and 480 min from each animal. Samples were withdrawn from the lateral saphenous vein and placed into Microvette CB 300 K2 EDTA-K2 (Sarstedt, Granollers, Spain) coated tubes.[31] At each time point, 0.40 mL of blood was collected, meaning that a maximum of 2.4 mL was obtained from each animal. […] Blood corresponding to 480 min was taken by a cardiac puncture with the animal under terminal anesthesia. Plasma was immediately obtained by centrifugation at 1500g at 4 °C for 15 min (Centrifuge Megafuge 1.0R, Heraeus, Boadilla, Spain) and kept at −20 °C until analysis.
Hydroxytyrosol and its metabolites in plasma were determined by liquid–liquid extraction followed by LC-MS/MS analysis as previously described.[11] Briefly, 200 μL of plasma was mixed with 10 μL of freshly prepared 10% ascorbic acid followed by 10 μL of 0.5% acetic acid and 10 μL of 2-(3-hydroxyphenyl) ethanol (10 μM, I.S.). Then, 2 mL of ethyl acetate was added to the samples that were vigorously mixed in a vortex (5 min), placed into an ultrasonic bath (10 min), and centrifuged at 1500g at 4 °C (15 min) (Centrifuge Megafuge 1.0R). A second extraction of the pellet with 2 mL of ethyl acetate was carried out. Subsequently, the two pooled supernatants were evaporated to dryness, reconstituted with 100 μL of 80% methanol, placed into amber vials, and immediately analyzed by LC-MS/MS.
The plasmatic concentrations were calculated by the interpolation of the peak area ratio of hydroxytyrosol versus I.S. on a calibration curve. Calibration standards were constructed with blank plasma obtained by cardiac puncture from overnight fasted rats that had never received either table olives or hydroxytyrosol. […] Results were expressed in nmol per liter of plasma (nmol/L). The method was validated following the EMA guidelines[33] at six different concentrations ranging from 0 to 250 nmol/L analyzed on three different days.
Individual PK of hydroxytyrosol and its metabolites were estimated from the plasma concentrations versus time profiles of each animal, through a noncompartmental analysis (NCA) with Phoenix-64 (Build 8.3.4.295, Certara, Princeton, N.J., USA). All concentrations of each pharmacokinetic profile were considered for NCA because the values obtained were above the LOQ. Peak plasma concentration (Cmax) and time to peak plasma concentration (Tmax) were determined by visual inspection of the pharmacokinetic profiles. The apparent elimination rate constant (λz) was estimated from the terminal slope of the semilogarithmic concentration–time curve. The apparent elimination half-life (t1/2λz) was calculated as t1/2z = 0.693/λz. The area under the plasma concentration–time curve from time zero to the last experimental time (AUCt) with analyte concentrations above the LOQ, was calculated by the linear-log trapezoidal rule. The area from time zero to infinity (AUC0–∞) was calculated by adding to the AUCt value the extrapolated area calculated as the ratio between the predicted concentration (Ct) at the last sampling time with concentrations above the LOQ and λz. The mean residence time (MRT0–∞) was given by the ratio of the area under the first-moment curve (AUMC0–∞) to the area under the zero-moment curve (AUC0–∞). The ratio indicating the relative exposure of each metabolite with respect to hydroxytyrosol (AUC0–∞m/AUC0–∞) was also calculated for all of the metabolites. […]

[2] = ref Serra et al. 23, cited from earlier work
[3] = healthy volunteers, ref Goldberg et al. 26, cited from earlier work; for AUC: 10 Kalamata olives
[4] = 30 olives group (hydroxytyrosol 2.95 mg/kg oral), geometric mean (95% CI)
[5] = 60 olives group (hydroxytyrosol 5.89 mg/kg oral), geometric mean (95% CI)

OCCc1ccc(O)c(O)c1 [hydroxytyrosol]
AUC0–∞ ([1]; 30 olives group (3.85 g olives/kg, hydroxytyrosol 2.95 mg/kg oral), geometric mean (95% CI)): 4293 min·nmol/L and 4293 (3815, 4830)^a min·nmol/L | Cmax/D [1, 4]: 0.0044 (0.0026, 0.0077)^a | AUC0–∞/D [1, 4]: 0.8149 (0.7420, 0.8949)^a | AUCt/D [1, 4]: 0.6383 (0.5153, 0.7907)^a | Vss/F (apparent steady-state volume of distribution) [1, 4]: 1139 (671.4, 1932)^a L/kg | AUCt [1, 4]: 3363 (2642, 4280)a min·nmol/L | AUC0–∞ ([1]; 60 olives group (7.70 g olives/kg, hydroxytyrosol 5.89 mg/kg oral), geometric mean (95% CI)): 8919 min·nmol/L and 8919 (6920, 11495)^b min·nmol/L | Cmax/D [1, 5]: 0.0039 (0.0028, 0.0053)^a | AUC0–∞/D [1, 5]: 0.7993 (0.6170, 1.035)^a | AUCt/D [1, 5]: 0.7091 (0.5407, 0.9300)^a | Vss/F (apparent steady-state volume of distribution) [1, 5]: 882.8 (674.2, 1161)^a L/kg | Tmax ([1]; 60 olives group (hydroxytyrosol 5.89 mg/kg oral)): 41 (33, 68)^a min | AUCt [1, 5]: 7912 (6031, 10381)^b min·nmol/L | half-life ([1]; Sprague-Dawley, rat, plasma, oral, both doses, assuming first-order absorption, read-out: absorption half-life inferred from Cmax/AUC): 2.1 to 2.4 h | CL/F ([1]; Sprague-Dawley, rat, plasma, oral, both doses, read-out: Cl/F): ~258 L/h/kg | Vd/F ([1]; Sprague-Dawley, rat, plasma, oral, both doses, read-out: Vss/F or Vdarea/F): ~1000 L/kg | Vd/F ([1]; Sprague-Dawley, rat, plasma, po, 2.95 mg/kg, 30 olives group (hydroxytyrosol 2.95 mg/kg oral), geometric mean (95% CI), read-out: Vdarea/F (apparent volume of distribution, terminal phase)): 1070 L/kg | Vd/F ([1]; Sprague-Dawley, rat, plasma, po, 2.95 mg/kg, 30 olives group (hydroxytyrosol 2.95 mg/kg oral), geometric mean (95% CI), read-out: Vss/F (apparent steady-state volume of distribution)): 1140 L/kg | half-life ([1]; Sprague-Dawley, rat, plasma, po, 2.95 mg/kg, 30 olives group (hydroxytyrosol 2.95 mg/kg oral), geometric mean (95% CI), read-out: t1/2λz (apparent elimination half-life)): 2.77 h | Tmax ([1]; Sprague-Dawley, rat, plasma, po, 2.95 mg/kg, 30 olives group (hydroxytyrosol 2.95 mg/kg oral), read-out: Tmax (converted)): ~1 h | Vd/F ([1]; Sprague-Dawley, rat, plasma, po, 5.89 mg/kg, 60 olives group (hydroxytyrosol 5.89 mg/kg oral), geometric mean (95% CI), read-out: Vdarea/F (apparent volume of distribution, terminal phase)): 678 L/kg | Vd/F ([1]; Sprague-Dawley, rat, plasma, po, 5.89 mg/kg, 60 olives group (hydroxytyrosol 5.89 mg/kg oral), geometric mean (95% CI), read-out: Vss/F (apparent steady-state volume of distribution)): 883 L/kg | half-life ([1]; Sprague-Dawley, rat, plasma, po, 5.89 mg/kg, 60 olives group (hydroxytyrosol 5.89 mg/kg oral), geometric mean (95% CI), read-out: t1/2λz (apparent elimination half-life)): 1.83 h | Tmax ([1]; Sprague-Dawley, rat, plasma, po, 5.89 mg/kg, 60 olives group (hydroxytyrosol 5.89 mg/kg oral), read-out: Tmax (converted)): ~0.667 h | half-life ([1]; Sprague-Dawley, rat, plasma, po, both doses (30 and 60 olives groups), oral table olives, read-out: half-life (t1/2λz) (converted)): ~2.5 h | CL/F ([1]; Sprague-Dawley, rat, plasma, 30 olives group (hydroxytyrosol 2.95 mg/kg oral), geometric mean (95% CI), read-out: Cl/F (apparent clearance)): 268 L/h/kg | MRT inf ([1]; Sprague-Dawley, rat, plasma, 30 olives group (hydroxytyrosol 2.95 mg/kg oral), geometric mean (95% CI), read-out: MRT0–∞ (converted)): 4.26 h | k el ([1]; Sprague-Dawley, rat, plasma, 30 olives group (hydroxytyrosol 2.95 mg/kg oral), geometric mean (95% CI)): 7e-05 s⁻¹ | Cmax ([1]; Sprague-Dawley, rat, plasma, 30 olives group (hydroxytyrosol 2.95 mg/kg oral)): 23.4 ± 1.68 nM | CL/F ([1]; Sprague-Dawley, rat, plasma, 60 olives group (hydroxytyrosol 5.89 mg/kg oral), geometric mean (95% CI), read-out: Cl/F (apparent clearance)): 257 L/h/kg | MRT inf ([1]; Sprague-Dawley, rat, plasma, 60 olives group (hydroxytyrosol 5.89 mg/kg oral), geometric mean (95% CI), read-out: MRT0–∞ (converted)): 3.44 h | k el ([1]; Sprague-Dawley, rat, plasma, 60 olives group (hydroxytyrosol 5.89 mg/kg oral), geometric mean (95% CI)): 0.000105 s⁻¹ | Cmax ([1]; Sprague-Dawley, rat, plasma, 60 olives group (hydroxytyrosol 5.89 mg/kg oral)): 43 ± 1.39 nM | MRT inf ([1]; Sprague-Dawley, rat, plasma, both doses (30 and 60 olives groups), oral table olives, read-out: mean residence time (MRT0–∞)): ~4 h | PK behaviour between doses (dose linearity) ([1]; between doses of 2.95 and 5.85 mg hydroxytyrosol/kg, noncompartmental analysis): linear PK | percentage of the AUC of each compound divided by the AUC of the sum of all of them ([1]; both doses (similar ratios between doses), plasma): 11% | share in rat plasma ([2]; after phenolic extract from olive cake containing 10.35 mg/kg of hydroxytyrosol): 6% | Tmax ([2]; sampling times limited to 1, 2 and 4 h): 2 h | Cmax ([3]; 10 Kalamata olives with 389.87 mg hydroxytyrosol/kg, parent compound): 0.64 nM | AUC ([3]; converted unit): 0.65 nM·h | AUC [3]: 0.65 nM·h
